Experimental data published in patent US20160324149A1, “ADJUVANTS FOR PLANT GROWTH REGULATORS” (VERDESIAN LIFE SCINCES, LLC, priority 2014, published 2016).

Tested on: soybean seedlings
Assay: Soybean seedling spray test, dry weight one week later
Format: in vivo
Details: for Mean Plant Dry Wt. / Total Dry Wt.: sprayed at 20 gallons per acre, harvested one week later
Experimental: In this test, soybean seedlings at true leaf emergence were sprayed with a series of aqueous test solutions at a rate of 20 gallons per acre. In those solutions including AVAIL®, use was made of AVAIL® for liquid phosphate fertilizers. The beans were then harvested one week later and were counted, dried, and weighed, and average weight per plant was determined.

Compound: C=C1C[C@]23C[C@@]1(O)CC[C@H]2[C@@]12C=C[C@H](O)[C@@](C)(C(=O)O1)[C@H]2[C@@H]3C(=O)O [gibberellic acid]
- Mean plant dry weight as gibberellic acid concentration increased (50-500 ppm): the mean plant dry weight also increased
- Mean Plant Dry Wt. (50 ppm gibberellic acid): 1.594 g
- Total Dry Wt. (50 ppm gibberellic acid): 17.53 g
- Mean Plant Dry Wt. (100 ppm gibberellic acid): 1.808 g
- Total Dry Wt. (100 ppm gibberellic acid): 18.08 g
- Mean Plant Dry Wt. (250 ppm gibberellic acid): 1.718 g
- Total Dry Wt. (250 ppm gibberellic acid): 20.61 g
- Mean Plant Dry Wt. (500 ppm gibberellic acid): 2.280 g
- Total Dry Wt. (500 ppm gibberellic acid): 22.80 g
